Measured values as given in the supplement of paper PMC10307832.

Assays:
Experiment in all cases: relative viability (nuclei count vs DMSO), 5 days (fraction); higher = more cells survive
Seliciclib + Palbociclib = compound: CC[C@H](CO)Nc1nc(NCc2ccccc2)c2ncn(C(C)C)c2n1 [Seliciclib] + CC(=O)c1c(C)c2cnc(Nc3ccc(N4CCNCC4)cn3)nc2n(C2CCCC2)c1=O [Palbociclib] (partner 0.5 µM)
Summary of the method: (§1)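 Values are medians from duplicate plates. Each reflects relative viability, defined as the nuclei count of treated wells over that of vehicle wells. Lung cancer cell lines in 1536-well plates were pin-tool dosed one day after seeding with one drug alone or with a fixed anchor-drug dose plus five library-drug doses (not always all listed) in √10 steps, then fixed, stained and imaged at 4× after 5 days.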

Seliciclib + Foretinib = compound: CC[C@H](CO)Nc1nc(NCc2ccccc2)c2ncn(C(C)C)c2n1 [Seliciclib] + COc1cc2c(Oc3ccc(NC(=O)C4(C(=O)Nc5ccc(F)cc5)CC4)cc3F)ccnc2cc1OCCCN1CCOCC1 [Foretinib] (partner 0.25 µM)
Summary of the method: as §1

Seliciclib + Pictilisib = compound: CC[C@H](CO)Nc1nc(NCc2ccccc2)c2ncn(C(C)C)c2n1 [Seliciclib] + CS(=O)(=O)N1CCN(Cc2cc3nc(-c4cccc5[nH]ncc45)nc(N4CCOCC4)c3s2)CC1 [Pictilisib] (partner 1 µM)
Summary of the method: as §1

Seliciclib + Bortezomib = compound: CC[C@H](CO)Nc1nc(NCc2ccccc2)c2ncn(C(C)C)c2n1 [Seliciclib] + CC(C)C[C@H](NC(=O)[C@H](Cc1ccccc1)NC(=O)c1cnccn1)B(O)O [Bortezomib] (partner 0.002 µM)
Summary of the method: as §1

Row | Cell Line | relative viability (Seliciclib + Palbociclib; first compound 0.08 µM) | relative viability (Seliciclib + Palbociclib; first compound 0.253 µM) | relative viability (Seliciclib + Palbociclib; first compound 0.8 µM) | relative viability (Seliciclib + Palbociclib; first compound 2.53 µM) | relative viability (Seliciclib + Palbociclib; first compound 8 µM) | relative viability (Seliciclib + Foretinib; first compound 0.08 µM) | relative viability (Seliciclib + Foretinib; first compound 0.253 µM) | relative viability (Seliciclib + Foretinib; first compound 0.8 µM) | relative viability (Seliciclib + Foretinib; first compound 2.53 µM) | relative viability (Seliciclib + Foretinib; first compound 8 µM) | relative viability (Seliciclib + Pictilisib; first compound 0.08 µM) | relative viability (Seliciclib + Pictilisib; first compound 0.253 µM) | relative viability (Seliciclib + Pictilisib; first compound 0.8 µM) | relative viability (Seliciclib + Pictilisib; first compound 2.53 µM) | relative viability (Seliciclib + Pictilisib; first compound 8 µM) | relative viability (Seliciclib + Bortezomib; first compound 0.08 µM) | relative viability (Seliciclib + Bortezomib; first compound 0.253 µM) | relative viability (Seliciclib + Bortezomib; first compound 0.8 µM) | relative viability (Seliciclib + Bortezomib; first compound 2.53 µM) | relative viability (Seliciclib + Bortezomib; first compound 8 µM)
1 | NCI-H1651 | 0.51 | 0.512 | 0.502 | 0.436 | 0.411 | 0.583 | 0.754 | 0.819 | 0.857 | 0.75 | 0.484 | 0.636 | 0.563 | 0.45 | 0.487 | 1 | 0.925 | 0.897 | 0.836 | 0.947
2 | NCI-H1666 | 0.635 | 0.633 | 0.666 | 0.603 | 0.5 | 0.97 | 1.04 | 0.987 | 1 | 0.662 | 0.33 | 0.526 | 0.478 | 0.353 | 0.439 | 0.799 | 0.739 | 0.809 | 0.66 | 0.568
3 | NCI-H1734 | 0.35 | 0.26 | 0.369 | 0.286 | 0.282 | 0.809 | 0.702 | 0.802 | 0.793 | 0.738 | 0.452 | 0.477 | 0.385 | 0.379 | 0.41 | 0.873 | 0.833 | 0.882 | 1.08 | 0.824
4 | NCI-H1755 | 0.417 | 0.477 | 0.342 | 0.433 | 0.412 | 0.94 | 0.891 | 1.02 | 0.882 | 0.915 | 0.414 | 0.504 | 0.389 | 0.339 | 0.386 | 0.928 | 0.961 | 0.896 | 0.973 | 0.913
5 | NCI-H1915 | 0.522 | 0.545 | 0.449 | 0.457 | 0.315 | 1.09 | 1.15 | 1.05 | 1.09 | 0.815 | 0.918 | 1.05 | 0.824 | 0.839 | 0.803 | 0.961 | 1.05 | 0.951 | 0.987 | 0.743
6 | NCI-H1975 | 0.619 | 0.342 | 0.55 | 0.389 | 0.339 | 1 | 0.977 | 0.894 | 0.932 | 0.748 | 0.296 | 0.298 | 0.352 | 0.214 | 0.271 | 0.372 | 0.348 | 0.345 | 0.322 | 0.218
7 | NCI-H1993 | 0.699 | 0.567 | 0.533 | 0.547 | 0.423 | 0.742 | 0.722 | 0.723 | 0.694 | 0.756 | 0.816 | 0.703 | 0.847 | 0.777 | 0.847 | 1.12 | 0.878 | 0.936 | 0.784 | 0.924
8 | NCI-H2009 | 0.202 | 0.0934 | 0.162 | 0.155 | 0.161 | 1.21 | 1.24 | 1.22 | 1.18 | 1.27 | 0.77 | 1.11 | 0.584 | 0.762 | 0.699 | 1.05 | 1.21 | 0.908 | 0.911 | 0.941
9 | NCI-H2023 | 0.366 | 0.324 | 0.295 | 0.183 | 0.159 | 0.752 | 0.664 | 0.865 | 0.909 | 0.833 | 0.227 | 0.224 | 0.232 | 0.164 | 0.182 | 0.998 | 1.1 | 1.1 | 0.747 | 0.84
10 | NCI-H2085 | 0.472 | 0.44 | 0.419 | 0.41 | 0.314 | 0.89 | 0.954 | 0.903 | 0.829 | 0.676 | 0.504 | 0.533 | 0.394 | 0.493 | 0.425 | 0.759 | 1.09 | 1.1 | 1.03 | 0.841
11 | NCI-H2087 | 0.28 | 0.288 | 0.241 | 0.16 | 0.151 | 1.16 | 1.05 | 1.04 | 1.07 | 0.816 | 1.03 | 1.12 | 0.508 | 0.813 | 0.832 | 0.73 | 0.792 | 0.719 | 0.752 | 0.661
12 | NCI-H2126 | 0.345 | 0.332 | 0.358 | 0.315 | 0.338 | 1.11 | 1.21 | 1.07 | 0.968 | 0.943 | 0.507 | 0.548 | 0.456 | 0.423 | 0.467 | 1.12 | 1.14 | 1.07 | 0.957 | 1.04
13 | NCI-H2228 | 0.851 | 0.617 | 0.714 | 0.86 | 0.507 | 0.931 | 0.826 | 0.727 | 0.856 | 0.591 | 0.372 | 0.333 | 0.234 | 0.457 | 0.339 | 1.05 | 0.943 | 0.954 | 0.978 | 0.713
14 | NCI-H2347 | 0.44 | 0.439 | 0.404 | 0.406 | 0.433 | 1.18 | 1.23 | 0.938 | – | 0.738 | 0.645 | 0.6 | 0.321 | 0.829 | 0.448 | 1.22 | 0.927 | 0.908 | – | 0.847
15 | NCI-H2405 | 0.485 | 0.483 | 0.552 | 0.361 | 0.452 | 1.06 | 1.16 | 1.07 | 0.836 | 0.939 | 0.462 | 0.43 | 0.314 | 0.288 | 0.35 | 0.984 | 0.956 | 0.946 | 0.922 | 0.905
16 | NCI-H3122 | 0.179 | 0.135 | 0.172 | 0.172 | 0.182 | 1.03 | – | 0.938 | 0.983 | 0.786 | 0.607 | 0.63 | 0.432 | 0.509 | 0.506 | 1.03 | 1.04 | 0.995 | 0.973 | 0.967
